From US8796256B2 (Janssen Pharmaceutica NV, priority 2010, dated 2014)
pEC50: −log10 of the molar value.

molecular target: T1, ERR1 (also known as ERR-α or ERR-1) (Homo sapiens, UniProt P11474); test: TR-FRET assay (disruption of co-activator peptide binding to ERR1 LBD); type: biochemical; conditions: 6 nM 6His-ERR1LBD, 6 nM GST-SRC-2 peptide; average of 3 independent experiments
T1 sequence (P11474 193-421 limits assumed): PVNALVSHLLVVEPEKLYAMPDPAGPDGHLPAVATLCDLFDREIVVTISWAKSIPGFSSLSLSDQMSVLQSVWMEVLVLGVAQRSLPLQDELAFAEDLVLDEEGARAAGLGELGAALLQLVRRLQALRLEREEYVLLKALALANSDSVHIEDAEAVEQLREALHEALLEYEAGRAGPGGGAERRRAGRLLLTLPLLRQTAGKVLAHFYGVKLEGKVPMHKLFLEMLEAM
Method in brief: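 Homogeneous TR-FRET measuring displacement of GST-hSRC2 co-activator peptide (6 nM) from His-tagged ERR1 LBD (6 nM), detected with α-GST Eu cryptate (30 nM) and α-His-XL665 (7.5 nM). Buffer 25 mM Tris pH 8, 2.5 mM Hepes, 20 mM KCl, 1 mM DTT, 0.05 mg/mL delipidated BSA; equilibration 4-18 h at 25° C. Hyperbolic dose-response fit, mean of 3 experiments.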

| SMILES | pEC50 |
| --- | --- |
| Cc1nc(CN2C(=O)S/C(=C\c3ccc4c(c3)nnn4Cc3ccc(Cl)cc3C(F)(F)F)C2=O)n[nH]1 [Compound 263, (5Z)-5-({1-[4-Chloro-2-(trifluoromethyl)benzyl]-1H-benzotriazol-5-yl}methylidene)-3-[(5-methyl-1H-1,2,4-triazol-3-yl)methyl]-1,3-thiazolidine-2,4-dione] | 7.80 |
| CS(=O)(=O)NC(=O)CN1C(=O)S/C(=C\c2ccc3c(cnn3Cc3ccc(C(F)(F)F)cc3C(F)(F)F)c2)C1=O [Compound 60, 2-[(5Z)-5-({1-[2,4-Bis(trifluoromethyl)-benzyl]-1H-indazol-5-yl}methylidene)-2,4-dioxo-1,3-thiazolidin-3-yl]-N-(methyl-sulfonyl)acetamide] | 7.24 |
| CN(C)CCCN1C(=O)S/C(=C\c2ccc3c(ccn3Cc3ccc(Cl)cc3C(F)(F)F)c2)C1=O [Compound 244, (5Z)-5-[(1-{[4-Chloro-2-(trifluoromethyl)phenyl]methyl}-1H-indol-5-yl)methylidene]-3-[3-(dimethylamino)-propyl]-1,3-thiazolidine-2,4-dione] | 7.30 |
| CC(C)N1CC[C@@H](N2C(=O)S/C(=C\c3ccc4c(cnn4Cc4ccc(Cl)cc4C(F)(F)F)c3)C2=O)[C@H](F)C1 (relative stereo) [Compound 328, (5Z)-5-({1-[4-Chloro-2-(trifluoromethyl)benzyl]-1H-indazol-5-yl}methylidene)-3-[trans-3-fluoro-1-(1-methylethyl)piperidin-4-yl]-1,3-thiazolidine-2,4-dione] | 6.82 |
| O=C(O)COCCN1C(=O)S/C(=C\c2ccc3c(cnn3Cc3ccc(Cl)cc3C(F)(F)F)c2)C1=O [Compound 237, {2-[(5Z)-5-({1-[4-Chloro-2-(trifluoromethyl)benzyl]-1H-indazol-5-yl}methylidene)-2,4-dioxo-1,3-thiazolidin-3-yl]ethoxy}acetic acid] | 7.01 |
| O=C(O)C(Cc1cccnc1)N1C(=O)S/C(=C\c2ccc3c(cnn3Cc3ccc(Cl)cc3C(F)(F)F)c2)C1=O (stereo not shown) [Compound 225, 2-[(5Z)-5-({1-[4-Chloro-2-(trifluoromethyl)benzyl]-1H-indazol-5-yl}methylidene)-2,4-dioxo-1,3-thiazolidin-3-yl]-3-pyridin-3-ylpropanoic acid] | 7.49 |
| O=C(NN1C(=O)S/C(=C\c2ccc3c(cnn3Cc3ccc(C(F)(F)F)cc3C(F)(F)F)c2)C1=O)C1CC1 [Compound 372, N-[(5Z)-5-({1-[2,4-Bis(trifluoromethyl)benzyl]-1H-indazol-5-yl}methylidene)-2,4-dioxo-1,3-thiazolidin-3-yl]cyclopropanecarboxamide] | 7.96 |
| O=C1S/C(=C\c2ccc3c(ccn3Cc3ccc(F)cc3C(F)(F)F)c2)C(=O)N1CCN1CCOCC1 [Compound 249, (5Z)-5-[(1-{[4-Fluoro-2-(trifluoromethyl)phenyl]methyl}-1H-indol-5-yl)methylidene]-3-(2-morpholin-4-ylethyl)-1,3-thiazolidine-2,4-dione] | 6.46 |
| CC(C)(C)OC(=O)COCCN1C(=O)S/C(=C\c2ccc3c(cnn3Cc3ccc(Cl)cc3C(F)(F)F)c2)C1=O [Compound 236, tert-Butyl {2-[(5Z)-5-({1-[4-chloro-2-(trifluoromethyl)benzyl]-1H-indazol-5-yl}methylidene)-2,4-dioxo-1,3-thiazolidin-3-yl]ethoxy}acetate] | 6.95 |
| O=C1S/C(=C\c2ccc3c(cnn3Cc3ccc(Cl)cc3C(F)(F)F)c2)C(=O)N1C1CCCNC1 (stereo not shown) [Compound 124, (5Z)-5-({1-[4-Chloro-2-(trifluoromethyl)benzyl]-1H-indazol-5-yl}methylidene)-3-piperidin-3-yl-1,3-thiazolidine-2,4-dione] | 7.29 |
| N#Cc1nn(Cc2ccc(Cl)cc2C(F)(F)F)c2ccc(/C=C3\SC(=O)N(CC(=O)O)C3=O)cc12 [Compound 416, [(5Z)-5-({1-[4-Chloro-2-(trifluoromethyl)benzyl]-3-cyano-1H-indazol-5-yl}methylidene)-2,4-dioxo-1,3-thiazolidin-3-yl]acetic acid] | 7.46 |
| O=C1S/C(=C\c2ccc3c(cnn3Cc3ccc(F)cc3C(F)(F)F)c2)C(=O)N1[C@@H]1CCNC[C@H]1O (relative stereo) [Compound 272, (5Z)-5-({1-[4-Fluoro-2-(trifluoromethyl)-benzyl]-1H-indazol-5-yl}methylidene)-3-[trans-3-hydroxypiperidin-4-yl]-1,3-thiazolidine-2,4-dione] | 6.82 |

Results, then the molecule that gave them:

| pEC50 | SMILES |
| --- | --- |
| 6.51 | CC(=O)Nc1nc(CN2C(=O)S/C(=C\c3ccc4c(cnn4Cc4ccc(Cl)cc4C(F)(F)F)c3)C2=O)cs1 [Compound 413, N-(4-{[(5Z)-5-({1-[4-Chloro-2-(trifluoromethyl)benzyl]-1H-indazol-5-yl}methylidene)-2,4-dioxo-1,3-thiazolidin-3-yl]methyl}-1,3-thiazol-2-yl)acetamide] |
| 8.30 | O=C1OCCN1CCN1C(=O)S/C(=C\c2ccc3c(cnn3Cc3ccc(Cl)cc3C(F)(F)F)c2)C1=O [Compound 131, (5Z)-5-({1-[4-Chloro-2-(trifluoromethyl)benzyl]-1H-indazol-5-yl}methylidene)-3-[2-(2-oxo-1,3-oxazolidin-3-yl)ethyl]-1,3-thiazolidine-2,4-dione] |
| 7.57 | COc1ccc(Cn2ncc3cc(/C=C4\SC(=O)N(CCN5CCCCC5)C4=O)ccc32)c(C(F)(F)F)c1 [Compound 11, (5Z)-5-[(1-{[4-(Methyloxy)-2-(trifluoromethyl)phenyl]methyl}-1H-indazol-5-yl)methylidene]-3-(2-piperidin-1-ylethyl)-1,3-thiazolidine-2,4-dione] |
| 7.33 | O=C1S/C(=C\c2ccc3c(cnn3Cc3ccc(Cl)cc3C(F)(F)F)c2)C(=O)N1CCC1CCNCC1 [Compound 164, (5Z)-5-({1-[4-Chloro-2-(trifluoromethyl)benzyl]-1H-indazol-5-yl}methylidene)-3-(2-piperidin-4-ylethyl)-1,3-thiazolidine-2,4-dione] |
| 7.20 | O=C1S/C(=C\c2ccc3c(cnn3Cc3ccc(Cl)cc3C(F)(F)F)c2)C(=O)N1C[C@H](O)CN1CC[C@@H](F)C1 [Compound 294, (5Z)-5-({1-[4-Chloro-2-(trifluoromethyl)benzyl]-1H-indazol-5-yl}methylidene)-3-{(2R)-3-[(3R)-3-fluoropyrrolidin-1-yl]-2-hydroxypropyl}-1,3-thiazolidine-2,4-dione] |
| 7.07 | CC(=O)N1CCN(CCN2C(=O)S/C(=C\c3ccc4c(cnn4Cc4ccc(Cl)cc4C(F)(F)F)c3)C2=O)CC1 [Compound 117, (5Z)-3-[2-(4-Acetylpiperazin-1-yl)ethyl]-5-({1-[4-chloro-2-(trifluoromethyl)benzyl]-1H-indazol-5-yl}methylidene)-1,3-thiazolidine-2,4-dione] |
| 7.42 | O=C1S/C(=C\c2ccc3c(cnn3Cc3ccc(Cl)cc3C(F)(F)F)c2)C(=O)N1Cc1nccn1S(=O)(=O)N1CCCC1 [Compound 412, (5Z)-5-({1-[4-Chloro-2-(trifluoromethyl)benzyl]-1H-indazol-5-yl}methylidene)-3-{[1-(pyrrolidin-1-ylsulfonyl)-1H-imidazol-2-yl]methyl}-1,3-thiazolidine-2,4-dione] |
| 6.57 | NS(=O)(=O)CN1C(=O)S/C(=C\c2ccc3c(cnn3Cc3ccc(F)cc3C(F)(F)F)c2)C1=O [Compound 61, 1-[(5Z)-5-({1-[4-Fluoro-2-(trifluoromethyl)benzyl]-1H-indazol-5-yl}methylidene)-2,4-dioxo-1,3-thiazolidin-3-yl]methanesulfonamide] |
| 7.00 | O=C1S/C(=C\c2ccc3c(cnn3Cc3ccc(Cl)cc3C(F)(F)F)c2)C(=O)N1CCNS(=O)(=O)C(F)(F)F [Compound 55, N-{2-[(5Z)-5-({1-[4-Chloro-2-(trifluoromethyl)benzyl]-1H-indazol-5-yl}methylidene)-2,4-dioxo-1,3-thiazolidin-3-yl]ethyl}-1,1,1-trifluoromethanesulfonamide] |
| 7.47 | NS(=O)(=O)CN1C(=O)S/C(=C\c2ccc3c(cnn3Cc3ccc(Cl)cc3C(F)(F)F)c2)C1=O [Compound 165, 1-[(5Z)-5-({1-[4-Chloro-2-(trifluoromethyl)benzyl]-1H-indazol-5-yl}methylidene)-2,4-dioxo-1,3-thiazolidin-3-yl]methanesulfonamide] |
| 7.96 | NC(=O)CN1CCN(N2C(=O)S/C(=C\c3ccc4c(cnn4Cc4ccc(Cl)cc4C(F)(F)F)c3)C2=O)CC1 [Compound 353, 2-{4-[(5Z)-5-({1-[4-Chloro-2-(trifluoromethyl)benzyl]-1H-indazol-5-yl}methylidene)-2,4-dioxo-1,3-thiazolidin-3-yl]piperazin-1-yl}acetamide] |
| 6.66 | O=C1S/C(=C\c2ccc3c(cnn3Cc3ccc(Cl)cc3C(F)(F)F)c2)C(=O)N1CCN1CCC1 [Compound 120, (5Z)-3-(2-Azetidin-1-ylethyl)-5-({1-[4-chloro-2-(trifluoromethyl)benzyl]-1H-indazol-5-yl}methylidene)-1,3-thiazolidine-2,4-dione] |
| 7.19 | CN1CCC(N2C(=O)S/C(=C\c3ccc4c(cnn4Cc4ccc(Cl)cc4C(F)(F)F)c3)C2=O)C(=O)C1 (stereo not shown) [Compound 342, (5Z)-5-({1-[4-Chloro-2-(trifluoromethyl)benzyl]-1H-indazol-5-yl}methylidene)-3-(1-methyl-3-oxopiperidin-4-yl)-1,3-thiazolidine-2,4-dione] |
